Measurements taken from patent US20230107216A1, “PANTETHEINE DERIVATIVES AND USES THEREOF” (Comet Therapeutics, Inc., priority 2018, published 2023).
Where two headings read alike, the source gives them in different places.

Tests used:
[1] = Deuterated and endogenous Coenzyme A in tissues after single and multiple dosing to vitamin B5-deprived mice (LC-MS/MS); type: in vivo, C57BL/6N mice
Protocol: Example 22: Determining Deuterated and Endogenous Coenzyme A in Various Tissues after Single and Multiple Dosing of Compound 1216 to Vitamin B5-Deprived Male C57BL/6N Mice
C57BL6/J male mice were placed on a Vitamin B5 deprived diet for 2 weeks prior to the start of dosing with Compound 1216, single or multiple dosing with either IV or oral administration. […]
The test item and vehicle were administered to the appropriate animals via intravenous (slow bolus) injection to the tail vein (Groups 1-5). In Group 6 test item was administered via oral gavage. The dose volume for each animal was based on the most recent body weight measurement. The animals were temporarily restrained for dose administration and were not sedated. The dose was given using a disposable needle and syringe (intravenous administration) or a stainless steel tube (oral gavage). The dosing formulations were stirred continuously during dose administration, when possible.
Tissue samples were directly removed after sacrifice, together with plasma and CSF and immediately snap frozen in liquid nitrogen and stored at −80° C. […].
Ultrapure water (UPW) was added to the tissue in a 3:1 ratio (e.g. 1 gr tissue+3 ml UPR) and homogenized for 2 minutes at 30/s with 3 beads using a bead mill. Samples were placed on ice and 200 mg weighed in a 2 ml PP tube. 20 μL 50 mM TCEP was added to the sample and vortexed and placed on ice water for 30 minutes. Subsequently 100 μL Perchloric acid was added and the samples was again vortexed and centrifuged for 5 min at 13000 ref (4° C.). Then 225 μL of the supernatant was transferred to a 1.5 mL PP tube. Then 50 μL 3M KOH was added, vortexed and incubated for 2h on ice water. Then 50 μL 3M HCl was added and again vortexed and centrifuged for 5 min at 13000 rcf (4° C.). 100 μL of the supernatant was transferred to a 1.5 mL PP tube, 150 μL UPW was added, and the samples was again vortexed. Then 200 μL of the supernatant was transferred to a 96-wells plate and the samples were ready for measurement. […]

[2] = tested on: monocyte-derived M1 macrophages; experiment: M1 differentiation assay (macrophage TNFα, IL6, IL10 ELISA, FACS); type: cell-based, human; details: Homo sapiens, Macrophage, 10 uM
Summary of the method: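 CD14+ human blood monocytes (100,000) differentiated 6 days with 10 ng/ml GM-CSF plus compound at 10 or 50 μM, refreshed days 2 and 4. Matured 24 h with GM-CSF, IFNγ, LPS plus compound. Supernatant TNFα, IL6, IL10 by ELISA; FACS M1 phenotype CD86+CD68+CD163−.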

[3] = Treg differentiation assay; type: cell-based; details: human
Protocol: Naïve CD4+ T cells (Stemcell, 17555) were isolated from PBMC and placed (20,000 cells/well) in 10 μg/ml anti-CD3 antibody (eBioscience, 16-0037-85) pre-coated 96-well flat bottom plate (Eppendorf, Cat #30730119) for 3 hours at 37° C. in an X-VIVO15 medium (Lonza, 04-418Q) supplemented with 15% FBS (Hyclone SV30087.03) and 1% Penicillin-Streptomycin (Hyclone, SV30010). Treg induction cocktail was added including 2 μg/ml anti-CD28 (eBioscience 16-0289-85), 20 ng/ml IL-2 (R&D, 202-IL-050) 0.2 ng/ml TGF-β1 (Peprotech, 100-21-50) in the presence of the compounds at 10 and 50 μM dose. On day 3 half of the medium, was refreshed with Treg differentiation cocktail as above and compounds (10 and 50 μM). On day 5 cells were collected and the following staining were performed: live/dead (Invitrogen, L34963), and Foxp3/Transcription Factor Staining Buffer Set (EBioscience, 00-5523-00), mouse anti-human FoxP3 (BD, 560046) or mouse IgG1, κIsotype control (BD, 555749) and analyzed by FACS (BD LSR Fortessa, 853492).

[4] = tested on: primary fibroblasts (healthy controls and PA, MMA, BCKDK, PDH, VLCAD, LS, PC, GA, VLCFA, KSS, FXN, HD); experiment: Measurement of ROS (H2DCFDA) in primary fibroblasts; type: cell-based, human; details: Homo sapiens, Fibroblast, BCKD GM00649, procedure Example 812, Assay Condition C
Summary of the method: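 Patient and healthy-control primary fibroblasts switched to supplemented DMEM 24 h before assay, then treated with compound (10 μM) plus H2DCFDA (22 μM) for 2 h (PA, MMA lines) or 24 h (other lines). Kinetic fluorescence at 492/527 nm over 60 min; only live cells analysed.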

HepG2 cells = experiment: MitoBiogenesis In-Cell ELISA (COX-I, SDH-A); type: cell-based; details: Homo sapiens, 168 h, 10 uM, 7 days, read-out: % increase in Mitochondrial Biogenesis
Text: We determined the effect of compounds of the present disclosure on the levels of two mitochondrial proteins using MitoBiogenesis™ In-Cell ELISA Kit (Abcam ab110216) according to manufacturer's instructions. The two proteins are each subunits of a different oxidative phosphorylation enzyme complex, one protein being subunit I of Complex IV (COX-1), which is mitochondrial (mt)DNA-encoded, and the other being the 70 kDa subunit of Complex II (SDH-A), which is nuclear (n)DNA-encoded. Complex IV includes several proteins which are encoded in the mitochondrion, while the proteins of Complex II are entirely encoded in the nucleus. HepG2 cells (ATCC, HB-8065) were cultured (5% CO2 at 37° C.) and plated in Poly-D-Lysine 384-Well plate (Corning, 356663) at a density of 40,000 cells/mL in 50 μL. Culture and assay media consisted of DMEM (Gibco, 11995-065) supplemented with 1% Penicillin-Streptomycin and 10% FBS (Hyclone, SV30087.03). Cells were allowed to settle for 30 min at room temperature and further incubated overnight (37° C. and 5% CO2) for adherence. Next day, 50-5 μM of the negative control Chloramphenicol (Selleck, S1677), test compounds (50-10 μM) and vehicle DMSO (0.2%) were added at the recommended volumes to the 384-well plate for 7 days without media change using a Tecan compound dispenser. All the solutions and wash buffers were prepared and dispensed according to manufacturer's volumes for a 384-well plate format. Effects of compounds on mtDNA-encoded protein expression (COX-I) and nuclear DNA-encoded mitochondrial protein expression (SDH-A) were expressed as relative signal (nm) to vehicle of a n=2 per conditions.

Levels of labeled CoA in liver and kidney ([1]; multiple IV doses) | Deuterated (labelled) CoA in cerebellum, cerebrum, remainder of the brain, liver, heart and kidney ([1]; multiple doses (either 3 or 5, IV and oral) of 102.8 mg/kg every 12 hours, vitamin B5-deprived mice, 15 minutes after last dose) | SMILES | Presence of deuterated (labelled) CoA in three brain regions and other organs over time ([1]; multiple IV doses, up to 24 hours after last dose) | activation at 10 µM ([2]; read-out: % Increase in IL-10 Secretion) | inhibition at 10 µM ([2]; read-out: % decrease in Macrophage IL-6 Secretion) | inhibition at 10 µM ([2]; read-out: % decrease in Macrophage TNFα Secretion) | percent decrease in viable Treg cells at 5 days, 50 µM [3] | inhibition at 10 µM ([4]; read-out: Decreased ROS by at least 10%) | inhibition at 10 µM ([4]; read-out: Decreased ROS by at least 30%) | activation at 10 µM (HepG2 cells)
high levels of labeled CoA | results in deuterated (labelled) CoA | [2H]C([2H])([2H])C(COP(=O)(O)O)(C(O)C(=O)NCCC(=O)NCCSC(C)=O)C([2H])([2H])[2H] (stereo not shown) [Compound 1216, S-acetyl-4′-phosphopantetheine-D6] | prolonged presence of deuterated (labelled) CoA |  |  |  |  |  |  | 
 |  | C/C=C/C(=O)SCCNC(=O)CCNC(=O)[C@H](O)C(C)(C)CO [Compound 35, (R)—S-(2-(3-(2,4-dihydroxy-3,3-dimethylbutanamido)propanamido)ethyl) (E)-but-2-enethioate] |  | ≥ 30% | ≥ 30% | ≥ 30% | ≥ 30% | ≥ 10% | ≥ 30% | > 5%
